In US10112932B2, “Benzoxazepin oxazolidinone compounds and methods of use” (Genentech, Inc., priority 2015, dated 2018):
Like-named read-outs stand apart in the source and are kept apart here.

What was measured:
[1] = molecular target: PI3Kα (Homo sapiens (Human), UniProt P42336); assay: Biochemical inhibition of PI3K alpha (ADP-Glo lipid kinase assay, Example 901); conditions: geometric mean of minimum three experiments unless footnoted
Experimental: Reactions are carried out using the following conditions for each PI3K isoform as in Table 5.
All reactions are carried out at room temperature. […] The reaction is started by the addition of 2 μl ATP/MgCl2. The kinase reaction buffer contains 50 mM HEPES, 50 mM NaCl 3 mM MgCl2, 0.01% BSA, 1% DMSO, and enzyme and substrate concentrations as indicated in the above table. The reaction is stopped by the addition of 10 μL ADP-Glo reagent. Plates are read in a Perkin Elmer Envision system using luminescence mode. 10 point dose response curves are generated for each test compound. Ki values for each compound are determined using the Morrison Equation.

[2] = tested on: MCF7 cells (PI3Kα mutant E545K); assay: Cell viability / antiproliferative assay in MCF7 cells (Example 903); type: cell-based; conditions: Homo sapiens, MCF7, 96 h, read-out: MCF7 antiproliferative EC50
Experimental: (§1) Cells were seeded (1,500 per well) in 384-well plates for 16 h. On day 2, nine serial 1:3 compound dilutions were made in DMSO in a 96-well plate. The compounds were then further diluted into growth media using a Rapidplate robot (Zymark Corp.). […] After 4 d, relative numbers of viable cells were measured by luminescence using Cell Titer-Glo (Promega) according to the manufacturer's instructions and read on a Wallac Multilabel Reader (Perkin-Elmer). EC50 values were calculated using Prism 6.0 software (GraphPad).

[3] = tested on: CD69 expression in CD19+ CD27− B cells; assay: B-cell a-IgM CD69 expression, human whole blood assay (Example 906); type: cell-based
Experimental: The expression of CD69 in B-cells resultant from a-IgM treatment is believed to be driven by signaling through PI3Kδ (delta).
Human whole blood was dispensed into 96-deep well plates at 100 μl per well. Compounds were diluted in DMSO to generate the desired stock concentrations and then further diluted in PBS to the desired working concentration and added in a volume of 5.5 μL per well. Samples were then incubated for 1 hour at 37° C. under 5% CO2 before the addition of 5 μg (10 μl per well) of Goat anti IgM F(ab′)2 (Southern Biotech, AL), and incubated for 18 hours at 37° C. under 5% CO2. All treatments were tested in duplicate.
In addition, human whole blood from each donor was stained with isotype-matched fluorescent control antibodies. After the addition of the appropriate antibody cocktail the whole blood samples were stained for 30 minutes in the dark and then lysed using BD Pharm Lysis (BD Bioscience, NJ). The resulting samples were then washed with FACS Buffer (Phosphate Buffered Saline (Ca:Mg++ free), 1 mM EDTA, 25 mM HEPES pH 7.0, 1% Fetal Bovine Serum (Heat-Inactivated) and fixed in FACS Buffer supplemented with 0.1% Formaldehyde (Polysciences Inc, PA) and 0.1% Pluronic F-68 (Sigma, MO). Data were acquired using a BD LSR-II (BD Biosciences) with BD FACSDiva software.
Cells were assessed by flow cytometry for levels of CD19, CD27 and CD69 using BD FACSDiva Software and the CD69 MFI-Mean of the CD19^+ CD27^− lymphocyte population was determined.

[4] = molecular target: p110α (Homo sapiens (Human), UniProt P42336, H1047R); assay: p110α degradation, Western blot in HCC1954 and HDQ-P1 cells after 24 hour treatment (Example 905); type: cell-based; conditions: HCC1954 (PI3Kα mutant H1047R) vs. HDQ-P1 (PI3Kα wild-type)
Experimental: Cell lines were grown under standard tissue culture conditions in RPMI media with 10% fetal bovine serum, 100 U/mL penicillin, and 100 μg/mL streptomycin.

[5] = Multiple day oral dosing in dogs (exposure, clinical and anatomic pathology); type: in vivo, Beagle dogs; conditions: for concentration at 14 day / Cmax / AUC(0-t): Beagle, plasma; for concentration at 14 day / Cmax / AUC(0-t) / Cmax D14, free / Exposure AUC0-24 hr, D14, free / Exposure multiples (free, AUC) / Exposure multiples (total, AUC) / Exposure multiples to CD69 IC50 (total, Cmin): dog; for concentration at 14 day: oral, read-out: Cmin D14, total; for Cmax / AUC(0-t): po; for Cmax: read-out: Cmax D14, total; for AUC(0-t): read-out: Exposure AUC0-24 hr, D14, total; for Exposure multiples (free, AUC) / Exposure multiples (total, AUC): vs TGI60 from 21-day HCC1954 TGI study; for Exposure multiples to CD69 IC50 (total, Cmin): whole-blood CD69 IC50 = 142 nM
Description: The extent and severity of findings is consistent with increased inhibition of PI3Kδ (delta) at exposure multiples over CD69 IC50 for the comparator compounds.

[6] = Unbound fraction in dog plasma (Fu); type: in vitro ADME; conditions: read-out: Fu dog (unbound fraction in species plasma)
[7] = Unbound fraction in mouse plasma (Fu); type: in vitro ADME; conditions: read-out: Fu mouse (unbound fraction in species plasma)
[8] = tested on: HDQ-P1 (PI3Kα wild-type), p-PRAS40; assay: p-PRAS40 MSD assay in HDQ-P1 cells (Example 907); conditions: Homo sapiens, HDQ-P1, 24 h, read-out: P-PRAS40 HDQ-P1 MSD EC50
Experimental: (§2) The following day, cells are treated with compounds and incubated for 24 hours. […] The HCC1954 cell line expresses mutant PI3Kα (E545K) vs WT in HDQP1.
(§3) The MSD platform provides a method of measuring the phosphorylated levels of pPRAS40 in a single sample. […] Following cell lysis, PRAS40 in samples is allowed to bind to the capture antibodies.
(§4) Procedure: • Compounds prepared at concentration of 2 mM in DMSO.
(§5) Day 1: Cell Plating • 1. Seed 12.500 cells in 45 ul medium for each cell line. Allow cells to settle/attach to plate for 15-20 min at room temperature. • 2. Incubate cells overnight in a 37° C. humidity and CO2 controlled incubator.
(§6) Day 2: Compound Plate Preparation and Compound Treatment • 1. For the 10× intermediate dilution plate: add 95 ul serum-free media into a standard profile greiner 384 well polypropylene plate. • 2. Use biomek Fx protocol for intermediate compound dilution in media and addition to cells: “SLS Intermed Dil Add 5 ul to Cells Jul. […] The method then transfers 5 ul from the intermediate dilution plate to the appropriate cell plate. • 3. Incubate the treated cells at 37 degrees for 24 hours in a 5% CO2 humidified incubator.
(§7) Block the MSD assay plate with 50 ul 3% Blocker A/1×MSD Wash Buffer 1-2 hr at room temp. […] Blocking buffer A contains 1×MSD wash buffer. 20 mL 1× Tris Wash buffer and 600 mg Blocker A.
(§8) Aspirate Media and Lyse the Cells • 1. Lyse the cells in 50 μl lysis buffer. Lyse at room temperature for 10-20 minutes on plate shaker. • 2. While cells are lysing, wash blocked plates 1×MSD wash buffer. • 3. Transfer 42 ul lysates (21+21 μL) to a blocked MSD pPRAS40 assay plate. • 4. Seal MSD plates and incubate at 4° C. with shaking overnight.
(§9) Day 4: MSD Assay/Detection • 8. Make a solution of 1% Blocker A in 1×MSD wash buffer. (20 mL 1× Tris Wash buffer and 200 mg Blocker A (1% w/v). This solution can be stored at 4° C. for up to one month. • 9. Wash the MSD plates with 1×MSD wash buffer. • 10. Add 10 μl of the diluted SULFO-TAG detection antibody to the plates. Incubate for 1 hr with shaking at room temp.
(§10) Wash the plates 4× with 1×MSD wash buffer. • 12. Add 35 μl 1× Read buffer with reverse pipetting to avoid bubbles. • 13. Read the plate immediately on the MSD SECTOR instrument.

[9] = tested on: HCC1954 (PI3Kα mutant H1047R), p-PRAS40; assay: p-PRAS40 MSD assay in HCC1954 cells (Example 907); conditions: Homo sapiens, HCC1954, 24 h, read-out: P-PRAS40 HCC1954 MSD EC50
Experimental: as §2, §3, §4, §5, §6, §7, §8, §9, §10

[10] = tested on: HCC1954 cells (PI3Kα mutant H1047R); assay: Cell viability / antiproliferative assay in HCC1954 cells (Example 903); conditions: Homo sapiens, HCC1954, 96 h, read-out: HCC1954 antiproliferative EC50
Experimental: as §1

[11] = tested on: SW48 (parental) PI3Kα wild-type cells, P-PRAS40; assay: Inhibition of P-PRAS40 in SW48 isogenic cells, PI3Kα wild-type parental (Example 902); conditions: Homo sapiens, SW48, 24 h, read-out: P-PRAS40 SW48 (parental) EC50
[12] = tested on: SW48 (E545K) PI3Kα mutant cells, P-PRAS40; assay: Inhibition of P-PRAS40 in SW48 isogenic cells, helical domain mutant E545K (Example 902); conditions: Homo sapiens, SW48, 24 h, read-out: P-PRAS40 SW48 (E545K) EC50
[13] = tested on: SW48 (H1047R) PI3Kα mutant cells, P-PRAS40; assay: Inhibition of P-PRAS40 in SW48 isogenic cells, kinase domain mutant H1047R (Example 902); conditions: Homo sapiens, SW48, 24 h, read-out: P-PRAS40 SW48 (H1047R) EC50

PI3Kα, sequence (P42336 whole entry, canonical isoform): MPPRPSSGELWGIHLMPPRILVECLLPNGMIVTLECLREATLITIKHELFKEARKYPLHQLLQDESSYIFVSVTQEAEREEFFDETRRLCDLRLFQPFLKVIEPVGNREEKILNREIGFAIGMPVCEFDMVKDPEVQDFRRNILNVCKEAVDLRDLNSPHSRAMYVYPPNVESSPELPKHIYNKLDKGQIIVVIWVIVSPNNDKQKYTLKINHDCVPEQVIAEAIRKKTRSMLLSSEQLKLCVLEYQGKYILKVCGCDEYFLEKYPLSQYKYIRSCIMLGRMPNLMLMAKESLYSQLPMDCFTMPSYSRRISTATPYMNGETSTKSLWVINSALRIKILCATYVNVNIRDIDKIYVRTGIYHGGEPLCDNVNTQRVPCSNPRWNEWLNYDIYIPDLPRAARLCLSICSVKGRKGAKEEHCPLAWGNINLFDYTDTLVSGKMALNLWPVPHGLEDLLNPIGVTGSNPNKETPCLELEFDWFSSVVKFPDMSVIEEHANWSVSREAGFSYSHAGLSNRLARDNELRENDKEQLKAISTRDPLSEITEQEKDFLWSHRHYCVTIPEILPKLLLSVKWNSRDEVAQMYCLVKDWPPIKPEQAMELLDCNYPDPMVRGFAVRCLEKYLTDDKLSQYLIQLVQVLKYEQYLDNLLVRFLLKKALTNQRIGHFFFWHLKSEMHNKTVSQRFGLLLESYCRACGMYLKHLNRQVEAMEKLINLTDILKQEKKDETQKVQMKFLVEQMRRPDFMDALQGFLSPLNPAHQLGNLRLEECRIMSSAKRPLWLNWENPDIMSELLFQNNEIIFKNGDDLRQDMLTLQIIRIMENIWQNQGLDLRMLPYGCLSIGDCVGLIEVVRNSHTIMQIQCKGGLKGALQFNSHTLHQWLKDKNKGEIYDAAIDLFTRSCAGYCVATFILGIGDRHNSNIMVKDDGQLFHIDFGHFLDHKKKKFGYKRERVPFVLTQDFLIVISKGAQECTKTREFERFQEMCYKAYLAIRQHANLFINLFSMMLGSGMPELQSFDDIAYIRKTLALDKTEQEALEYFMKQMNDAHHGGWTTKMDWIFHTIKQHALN
PI3Kα, sequence (P27986 whole entry partner, canonical isoform): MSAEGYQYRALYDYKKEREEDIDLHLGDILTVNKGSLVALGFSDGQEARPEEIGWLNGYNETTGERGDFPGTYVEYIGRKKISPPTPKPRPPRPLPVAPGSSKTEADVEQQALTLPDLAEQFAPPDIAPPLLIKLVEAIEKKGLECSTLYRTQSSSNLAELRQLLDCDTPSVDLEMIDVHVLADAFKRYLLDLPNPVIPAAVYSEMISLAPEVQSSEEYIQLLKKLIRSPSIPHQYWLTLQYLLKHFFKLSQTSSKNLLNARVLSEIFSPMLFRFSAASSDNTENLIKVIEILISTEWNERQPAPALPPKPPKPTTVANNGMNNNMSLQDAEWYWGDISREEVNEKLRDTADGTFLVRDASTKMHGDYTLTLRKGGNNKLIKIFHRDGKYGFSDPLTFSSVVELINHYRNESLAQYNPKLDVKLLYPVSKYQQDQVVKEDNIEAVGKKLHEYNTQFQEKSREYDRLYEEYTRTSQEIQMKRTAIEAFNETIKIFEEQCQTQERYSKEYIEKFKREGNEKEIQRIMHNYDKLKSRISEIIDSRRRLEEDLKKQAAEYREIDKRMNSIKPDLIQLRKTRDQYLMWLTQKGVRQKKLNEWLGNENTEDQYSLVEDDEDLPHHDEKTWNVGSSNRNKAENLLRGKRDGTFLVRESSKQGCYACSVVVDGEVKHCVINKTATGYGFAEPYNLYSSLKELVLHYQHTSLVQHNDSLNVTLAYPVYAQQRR
p110α, sequence (P42336 whole entry H1047R): as the sequence (P42336 whole entry, canonical isoform) above, with H1047R counted along it
p110α, sequence (P27986 whole entry partner): as the sequence (P27986 whole entry partner, canonical isoform) above

SMILES: NC(=O)[C@@H](Nc1ccc2c(c1)OCCn1cc(N3C(=O)OC[C@H]3C(F)F)nc1-2)C1CC1 [Compound 103, (S)-2-Cyclopropyl-2-((2-((S)-4-(difluoromethyl)-2-oxooxazolidin-3-yl)-5,6-dihydrobenzo[f]imidazo[1,2-d][1,4]oxazepin-9-yl)amino)acetamide]
- Ki [1]: 0.06 nM
- EC50 [2]: 30 nM
- IC50 ([3]; Homo sapiens, whole-blood, uncorrected, read-out: a-IgM stimulated CD69 expression (whole-blood) IC50): 142 nM
- IC50 ([3]; human whole-blood IC50 multiplied by measured human fu, read-out: B-cell a-IgM CD69 expression IC50, plasma-protein-binding corrected): 76 nM
- p110α levels (Western blot) [4]: promote reduction of p110α levels selectively in PI3K mutant
- concentration at 14 day ([5]; 0.1 mg/kg/day): 0.0048 µM
- concentration at 14 day ([5]; 0.3 mg/kg/day): 0.011 µM
- concentration at 14 day ([5]; 1 mg/kg/day): 0.034 µM
- Cmax ([5]; 0.1 mg/kg/day): 0.04 µM
- AUC(0-t) ([5]; 0.1 mg/kg/day): 270 nM·h
- Cmax ([5]; 0.3 mg/kg/day): 0.13 µM
- AUC(0-t) ([5]; 0.3 mg/kg/day): 900 nM·h
- Cmax ([5]; 1 mg/kg/day): 0.31 µM
- AUC(0-t) ([5]; 1 mg/kg/day): 2540 nM·h
- Cmax D14, free ([5]; Compound 103 0.1 mg/kg/day QD): 0.02 µM
- Exposure AUC0-24 hr, D14, free ([5]; Compound 103 0.1 mg/kg/day QD): 140 nM·h
- Exposure multiples (free, AUC) ([5]; Compound 103 0.1 mg/kg/day QD): 4.7 ×
- Exposure multiples (total, AUC) ([5]; Compound 103 0.1 mg/kg/day QD): 0.2 ×
- Exposure multiples to CD69 IC50 (total, Cmin) ([5]; Compound 103 0.1 mg/kg/day QD): 0.03×
- Cmax D14, free ([5]; Compound 103 0.3 mg/kg/day QD): 0.066 µM
- Exposure AUC0-24 hr, D14, free ([5]; Compound 103 0.3 mg/kg/day QD): 460 nM·h
- Exposure multiples (free, AUC) ([5]; Compound 103 0.3 mg/kg/day QD): 15 ×
- Exposure multiples (total, AUC) ([5]; Compound 103 0.3 mg/kg/day QD): 0.8 ×
- Exposure multiples to CD69 IC50 (total, Cmin) ([5]; Compound 103 0.3 mg/kg/day QD): 0.08×
- Cmax D14, free ([5]; Compound 103 1 mg/kg/day QD): 0.16 µM
- Exposure AUC0-24 hr, D14, free ([5]; Compound 103 1 mg/kg/day QD): 1290 nM·h
- Exposure multiples (free, AUC) ([5]; Compound 103 1 mg/kg/day QD): 43 ×
- Exposure multiples (total, AUC) ([5]; Compound 103 1 mg/kg/day QD): 2.2 ×
- Exposure multiples to CD69 IC50 (total, Cmin) ([5]; Compound 103 1 mg/kg/day QD): 0.2×
- Lymphoid depletion (summary) ([5]; multiple-day dosing in Beagle dogs (7-14 days), high exposure multiples): only minor amounts of lymphoid depletion at high exposure multiples
- Pro-inflammatory signature (clinical pathology or anatomic pathology evaluation) ([5]; multiple-day dosing in Beagle dogs (7-14 days), 101 and 103 at >5-fold free exposure multiples over TGI60): do not promote a pro-inflammatory signature
- fraction unbound [6]: 0.507
- fraction unbound [7]: 0.03
- EC50 [8]: 155 nM
- EC50 [9]: 28 nM
- EC50 [10]: 70 nM
- EC50 [11]: 10.1 nM
- EC50 [12]: 4.1 nM
- EC50 [13]: 3.8 nM
